Laboratory results: patent US4376116A, “Polyamine biosynthesis inhibitors” (Research Corporation, priority 1981, dated 1983)
Read-outs that look alike come from different tables or passages of the source.

How the values were obtained:
[1] = target: T1, rat prostate spermine synthase (Rattus norvegicus, UniProt Q3MIE9); test: Inhibition of rat prostate spermine synthase; assay type: biochemical; details: for inhibition at 100 µM: second preparation of spermine synthase
T1 construct: with respect to rat prostate spermine synthase; from tissue; host or cells: rat prostate
T1 sequence (Q3MIE9 1-366): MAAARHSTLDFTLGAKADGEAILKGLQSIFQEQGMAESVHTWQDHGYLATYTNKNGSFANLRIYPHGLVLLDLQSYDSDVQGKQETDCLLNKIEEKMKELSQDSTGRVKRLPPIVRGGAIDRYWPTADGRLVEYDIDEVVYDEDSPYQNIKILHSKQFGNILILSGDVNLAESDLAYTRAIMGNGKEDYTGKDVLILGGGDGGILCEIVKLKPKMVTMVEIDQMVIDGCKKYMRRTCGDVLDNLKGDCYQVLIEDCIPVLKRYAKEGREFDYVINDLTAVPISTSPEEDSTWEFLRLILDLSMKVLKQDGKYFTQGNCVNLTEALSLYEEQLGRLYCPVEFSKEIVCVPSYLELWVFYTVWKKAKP
Excerpt: This enzyme catalyzes the synthesis of spermine in the reaction of spermidine with decarboxylated S-adenosylmethionine, presumably by direct nucleophilic attack as shown by the above transition state wherein R is aminopropyl.

[2] = target: T2, rat prostate spermidine synthase (Rattus norvegicus, UniProt Q99MI5); test: Inhibition of purified spermidine synthase from rat ventral prostate; assay type: biochemical
T2 construct: purified spermidine synthase obtained from the rat ventral prostate; from tissue; host or cells: rat ventral prostate
T2 sequence (Q99MI5 1-302): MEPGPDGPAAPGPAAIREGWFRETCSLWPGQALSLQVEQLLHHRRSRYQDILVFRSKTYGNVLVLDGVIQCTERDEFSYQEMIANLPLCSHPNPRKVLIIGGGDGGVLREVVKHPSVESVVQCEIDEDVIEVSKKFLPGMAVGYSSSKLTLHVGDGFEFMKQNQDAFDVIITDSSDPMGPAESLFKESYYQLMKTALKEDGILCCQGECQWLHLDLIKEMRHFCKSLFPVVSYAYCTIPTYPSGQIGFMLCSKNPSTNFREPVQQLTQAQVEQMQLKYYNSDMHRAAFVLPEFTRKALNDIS

[3] = target: T3, methylthioadenosine phosphorylase (Rattus norvegicus, UniProt A0A0G2K583); test: Inhibition of methylthioadenosine (MTA) phosphorylase; assay type: biochemical; details: for % Inhibition MTA Phosphorylase: methyl thioadenosine 100 μm
T3 construct: In the tests involving MTA phosphorylase, the procedure described by H. Hibasami was employed; from tissue
T3 sequence (A0A0G2K583 1-283): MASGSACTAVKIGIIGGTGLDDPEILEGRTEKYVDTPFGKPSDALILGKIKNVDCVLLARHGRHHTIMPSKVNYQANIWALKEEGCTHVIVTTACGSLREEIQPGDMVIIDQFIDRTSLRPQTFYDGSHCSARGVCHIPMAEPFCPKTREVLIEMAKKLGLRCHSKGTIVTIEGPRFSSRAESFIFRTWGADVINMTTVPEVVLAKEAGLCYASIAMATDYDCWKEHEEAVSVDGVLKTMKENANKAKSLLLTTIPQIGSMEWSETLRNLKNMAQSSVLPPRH
Excerpt: However, they can be readily prepared by coupling 5'-deoxy-5'-chloroadenosine with an appropriate thiol compound. […] (In the tests involving MTA phosphorylase, the procedure described by H. Hibasami was employed at a methyl thioadenosine concentration of 100 μm.)

[4] = Solubility limiting the concentration range; assay type: physicochemical; details: concentration range limited
[5] = tested on: aminopropyl transferases; details: another study; cited from earlier work
[6] = tested on: SAM-dependent methylases; details: cited from earlier work
[7] = at concentrations as high as 250 μM

SMILES | inhibition of spermine synthase (in words) [1] | % Inhibition Spermine Synthase ([1]; Concentration 50) [%] | % Inhibition Spermine Synthase ([1]; Concentration 100) [%] | % Inhibition Spermine Synthase ([1]; Concentration 250) [%] | % Inhibition Spermidine Synthase ([2]; Concentration 50, dcSAM 21 μm) [%] | % Inhibition Spermidine Synthase ([2]; Concentration 100, dcSAM 21 μm) [%] | % Inhibition Spermidine Synthase ([2]; Concentration 250, dcSAM 21 μm) [%] | % Inhibition MTA Phosphorylase ([3]; Concentration 250) [%] | inhibition of spermidine synthase (in words) [2] | other results
NCCCCCC(O)CCN (stereo not drawn) [1,8-diamine-3-octanol, reference compound] |  |  |  |  |  |  |  |  |  | inhibition of spermine synthase (in words) [1, 7]: completely inactive; inhibition of spermidine synthase (in words) [2, 7]: completely inactive
CCCCCC(CC)[S+](C)C[C@H]1O[C@@H](n2cnc3c(N)ncnc32)[C@H](O)[C@@H]1O (stereo partly drawn) [Compound IIb, S-Adenosyl-3-methylthiooctane] | only modest inhibition | 35 | 56 | 75 | 7 | 14 | 44 | 21 | do not at all inhibit | inhibition at 100 µM [1]: 19%
C[S+](C)C[C@H]1O[C@@H](n2cnc3c(N)ncnc32)[C@H](O)[C@@H]1O.[O-][Cl+3]([O-])([O-])[O-] [IIa, Dimethyl-(5'-adenosyl)sulfonium perchlorate] | shows inhibition of spermine synthase | 68 |  | 82 | 0 |  | 6 | 30 |  | 
CSC[C@H]1O[C@@H](n2cnc3c(N)ncnc32)[C@H](O)[C@@H]1O [Ia, 5'-methylthioadenosine] | inhibitor of both spermidine synthase and spermine synthase |  |  |  |  |  |  |  | inhibitor of both spermidine synthase and spermine synthase | % Inhibition Spermine Synthase ([1]; Concentration 50, dcSAM 42 μM): 80%; % Inhibition Spermine Synthase ([1]; Concentration 100, dcSAM 42 μM): 98%; inhibition of aminopropyl transferases (in words) [5]: non-specific inhibition; % Inhibition Spermidine Synthase ([2]; Concentration 50, dcSAM 42 μM): 61%; % Inhibition Spermidine Synthase ([2]; Concentration 100, dcSAM 42 μM): 82%; MTA Phosphorylase (substrate, in words) [3]: Substrate
Nc1ncnc2c1ncn2[C@@H]1O[C@H](CSCC[C@H](N)C(=O)O)[C@@H](O)[C@H]1O [S-adenosyl-L-homocysteine] |  |  |  |  |  |  |  |  |  | inhibition of SAM-dependent methylases (in words) ([6]; another study): non-specific inhibition; Ki versus Km of S-adenosyl-L-methionine (in words) ([6]; many methylases, Cantoni et al): considerably less than the Km value for the corresponding sulfonium substrate

Now from value to molecule, other results behind:

inhibition of spermine synthase (in words) [1] | % Inhibition Spermine Synthase ([1]; Concentration 50) [%] | % Inhibition Spermine Synthase ([1]; Concentration 100) [%] | % Inhibition Spermine Synthase ([1]; Concentration 250) [%] | % Inhibition Spermidine Synthase ([2]; Concentration 50, dcSAM 21 μm) [%] | % Inhibition Spermidine Synthase ([2]; Concentration 100, dcSAM 21 μm) [%] | % Inhibition Spermidine Synthase ([2]; Concentration 250, dcSAM 21 μm) [%] | % Inhibition MTA Phosphorylase ([3]; Concentration 250) [%] | SMILES | inhibition of spermidine synthase (in words) [2] | other results
almost no inhibitory activity |  | 22 |  |  | 0 |  |  | CCCCCC(CC)SC[C@H]1O[C@@H](n2cnc3c(N)ncnc32)[C@H](O)[C@@H]1O (stereo partly drawn) [Compound Ib, S-adenosyl-3-thiooctane] | do not at all inhibit | % Inhibition Spermine Synthase ([1]; Concentration 25): 11%; solubility (in words) [4]: poor solubility; % Inhibition Spermidine Synthase ([2]; Concentration 25, dcSAM 21 μm): 0%; % Inhibition MTA Phosphorylase ([3]; Concentration 100): 25%
almost no inhibitory activity |  |  |  | 99 | 99 |  |  | NCCCCCC(CCN)SC[C@H]1O[C@@H](n2cnc3c(N)ncnc32)[C@H](O)[C@@H]1O (stereo partly drawn) [Compound Ic, S-Adenosyl-1,8-diamino-3-thiooctane] | more potent inhibitor of spermidine synthase than the fully charged methyl sulfonium salt IIc | % Inhibition Spermine Synthase ([1]; Concentration 25): 10%; % Inhibition Spermidine Synthase ([2]; Concentration 10, dcSAM 21 μm): 97%; % Inhibition Spermidine Synthase ([2]; Concentration 25, dcSAM 21 μm): 97%; inhibitory specificity against spermidine synthase (in words) ([2]; versus spermine synthase): unusual inhibitory specificity; effect on methylthioadenosine phosphorylase (in words) [3]: neither compound Ic nor IIc has any significant effect; % Inhibition MTA Phosphorylase ([3]; Concentration 10): 3%; % Inhibition MTA Phosphorylase ([3]; Concentration 25): 8%; % Inhibition MTA Phosphorylase ([3]; Concentration 100): 10%
only modest inhibition | 40 | 59 | 86 | 84 | 92 | 96 | 25 | C[S+](C[C@H]1O[C@@H](n2cnc3c(N)ncnc32)[C@H](O)[C@@H]1O)C(CCN)CCCCCN (stereo partly drawn) [IIc, S-Adenosyl-1,8-diamino-3-(methylthio)octane] |  | % Inhibition Spermine Synthase ([1]; Concentration 10): 7%; inhibition at 100 µM [1]: 28%; % Inhibition Spermidine Synthase ([2]; Concentration 10, dcSAM 21 μm): 32%; effect on methylthioadenosine phosphorylase (in words) [3]: neither compound Ic nor IIc has any significant effect
